Assays:
Format in all cases: functional
[1] = tested on: Staphylococcus aureus; assay: Antibacterial activity against quinolone-resistant Staphylococcus aureus MS5935 by micro-broth dilution method
[2] = tested on: Staphylococcus aureus; assay: Ratio of MIC for quinolone-resistant Staphylococcus aureus MS5935 to MIC for quinolone-sensitive Staphylococcus aureus MS5935
[3] = tested on: Staphylococcus aureus; assay: Antibacterial activity against quinolone-sensitive Staphylococcus aureus MS5935 by micro-broth dilution method

`C[C@H]1COc2c(N3CCN(C)CC3)c(F)cc3c(=O)c(C(=O)O)cn1c23.C[C@H]1COc2c(N3CCN(C)CC3)c(F)cc3c(=O)c(C(=O)O)cn1c23.O` [LEVOFLOXACIN] was tested, and the MIC [1] was over 16 µg/mL, the Ratio [2] was over 64 and the MIC [3] was 0.26 µg/mL.

Source: ChEMBL document CHEMBL3751822, “C1C2-linker substituted 1,5-naphthyridine analogues of oxabicyclooctane-linked NBTIs as broad-spectrum antibacterial agents (part 7)” (Medchemcomm, 2015)
